US20260309717A1, “PROXIMITY INDUCING SYSTEM AND USES THEREOF” (SORBONNE UNIVERSITE, priority 2022, published 2026)

Assays:
Format in all cases: cell-based
Conditions in all cases: 10 μM
[1] = target: T1, mCherry-^FIREtag / ^FIREmate-ECFP-Giantin (Halorhodospira halophila, UniProt P16113, A30V/C69G/D97P/F96I, form not given/G21E/G25R/K17N/M100R/M109L/Q41L/Q99S/S72T/T101G/V83A/Y94W/Y98T); assay: Recruitment of cytoplasmic protein to the Golgi apparatus, HeLa cells
T1 construct: FIREmate-ECFP-Giantin(3131-3259) and mCherry-FIREtag in HeLa cells
T1 sequence (P16113 1-114 A30V/C69G/D97P/F96I/G21E/G25R/K17N/M100R/M109L/Q41L/Q99S/S72T/T101G/V83A/Y94W/Y98T): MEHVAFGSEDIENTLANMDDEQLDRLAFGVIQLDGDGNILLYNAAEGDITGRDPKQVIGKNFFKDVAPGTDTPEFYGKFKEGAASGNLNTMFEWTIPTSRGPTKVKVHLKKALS
Experimental: FIGS. 6A-E illustrate the recruitment of cytoplasmic proteins to the Golgi apparatus with the proximity inducing system described herein. FIG. 6A is a representation of the experimental design wherein HeLa cells co-expressing mCherry-^FIREtag and ^FIREmate-ECFP-Giantin were treated with 10 µM of match (either HBR-2,5DM or HMBR), and imaged by time-lapse confocal microscopy. FIGS. 6B-C are graphs showing the temporal evolution of the FIRE signal detected upon addition at 0 min of HBR-2,5DM (match1-6B) or HMBR (match2-6C). Data represents the mean values±SD of 10 cells from n=3 independent experiments (6B, D), or of 12 cells from n=3 independent experiments (6C, E). FIGS. 6D-E are sets of representative confocal micrographs of cells before (0 min) and after (5 min) addition of HBR-2,5DM (match1-6D) or HMBR (match2-6E) (mCherry: ex/em 561/606-675 nm; FIRE: ex/em 488/508-570 nm; ECFP: ex/em 445/455-499 nm). […] Scale bars are 20 μm.
(§1) The confocal micrographs were acquired on a Zeiss LSM 980 Laser Scanning Microscope equipped with a plan apochromat 63x/1.4 NA oil immersion objective. ZEN software was used to collect the data. The images were analyzed using Icy (2.4.0.0) and Fiji (Image J). In short, to track fluorescence signal in a specific organelle, a ROI (region of interest) was determined by masking the signal in the ECFP (Enhanced Cyan Fluorescent Protein) channel with the plug-in HK-means with the following parameters: intensity class equals 100, minimum object size (pixels or px) equals 500, maximum object size (px) equals 1500-3000. The signal intensity of the ROI was tracked over time for each channel by using plug-in Active Contours. The background signal was subtracted. Data were processed using GraphPad Prism v9.3.0.
(§2) To further evaluate the scope of the proximity inducing system described herein and show its versatility, ^FIREmate was anchored at the membrane of various organelles or cellular structures so that ^FIREmate faced the cytosol. ^FIREmate was thus fused: • to the N-terminus of the transmembrane domain (amino acid residues at positions 3131-3259) of Giantin for location at the cis-medial rims of the Golgi apparatus (FIG. 6A), • to the N-terminus of the transmembrane domain (amino acid residues at positions 100-134) of the cytochrome b5 (Cb5) for location at the endoplasmic reticulum membrane (FIG. 7A), and • to the C-terminus of the Lyn11 inner membrane targeting sequence for location at the plasma membrane (FIG. 8A).
(§3) For each construct, an ECFP was inserted between ^FIREmate and the other protein domain/sequence to monitor the localization of the resulting fusion protein (blue fluorescence). Each fusion protein was co-expressed in mammalian cells (HeLa cells or HEK293 cells as indicated) together with mCherry-^FIREtag (red fluorescence). […]

[2] = target: T2, mCherry-^FIREtag / Lyn11-ECFP-^FIREmate (Halorhodospira halophila, UniProt P16113, A30V/C69G/D97P/F96I, form not given/G21E/G25R/K17N/M100R/M109L/Q41L/Q99S/S72T/T101G/V83A/Y94W/Y98T); assay: Recruitment of cytoplasmic protein to the plasma membrane, HEK293 cells
T2 construct: Lyn11-ECFP-FIREmate and mCherry-FIREtag in HEK293 cells
T2 sequence (P16113 1-114 A30V/C69G/D97P/F96I/G21E/G25R/K17N/M100R/M109L/Q41L/Q99S/S72T/T101G/V83A/Y94W/Y98T): T1 sequence (P16113 1-114 A30V/C69G/D97P/F96I/G21E/G25R/K17N/M100R/M109L/Q41L/Q99S/S72T/T101G/V83A/Y94W/Y98T)
Experimental: FIGS. 8A-E illustrate the recruitment of cytoplasmic proteins to the plasma membrane with the proximity inducing system described herein. FIG. 8A is a representation of the experimental design wherein HEK293 cells co-expressing mCherry-^FIREtag and Lyn11-ECFP-^FIREmate were treated with 10 μM of match (either HBR-2,5DM or HMBR), and imaged by time-lapse confocal microscopy. FIGS. 8B-C are graphs showing the temporal evolution of the FIRE signal detected upon addition at 0 min of HBR-2,5DM (match1-8B) or HMBR (match2-8C). Data represents the mean values±SD of 22 cells from n=3 independent experiments (8B, D), or of 30 cells from n=3 independent experiments (8C, E). FIGS. 8D-E are sets of representative confocal micrographs of cells before (0 min) and after (5 min) addition of HBR-2,5DM (match1-8D) or HMBR (match2-8E) (mCherry: ex/em 561/606-675 nm; FIRE: ex/em 488/508-570 nm; ECFP: ex/em 445/455-499 nm). […] Scale bars are 20 μm.
as §1, §2, §3

[3] = target: T3, mCherry-caged^FIREtag / ^FIREmate-ECFP-Giantin (Halorhodospira halophila, UniProt P16113, A30V/C69G/D97P/F96I, form not given/G21E/G25R/K17N/M100R/M109L/Q41L/Q99S/S72T/T101G/V83A/Y94W/Y98T); assay: Recruitment of mCherry-caged^FIREtag to the Golgi, confocal microscopy, HeLa cells
T3 construct: mCherry-caged FIREtag (PYP 2-114 C69G cage) and FIREmate-ECFP-Giantin in HeLa cells
T3 sequence (P16113 1-114 A30V/C69G/D97P/F96I/G21E/G25R/K17N/M100R/M109L/Q41L/Q99S/S72T/T101G/V83A/Y94W/Y98T): T1 sequence (P16113 1-114 A30V/C69G/D97P/F96I/G21E/G25R/K17N/M100R/M109L/Q41L/Q99S/S72T/T101G/V83A/Y94W/Y98T)
Experimental: FIGS. 11A-C illustrate the use of a caged proximity inducing system as described herein. FIG. 11A is a representation of the experimental design wherein HeLa cells co-expressing mCherry-caged^FIREtag and ^FIREmate-ECFP-Giantin were treated with 10 μM of match (i.e., HBR-2,5DM), and imaged by time-lapse confocal microscopy. FIG. 11B is a graph showing the temporal evolution of the FIRE signal detected upon addition of HBR-2,5DM at 0 min, either with ^FIREtag or with caged^FIREtag. Data represents the mean values±SD of 7 cells from n=3 independent experiments. FIG. 11C is a set of representative confocal micrographs of cells before (0 min) and after (9 min) addition of HBR-2,5DM (match1) (mCherry: ex/em 561/606-675 nm; FIRE: ex/em 488/508-570 nm; ECFP: ex/em 445/455-499 nm). […] Scale bars are 20 μm.
The confocal micrographs were acquired on a Zeiss LSM 980 Laser Scanning Microscope equipped with a plan apochromat 63x/1.4 NA oil immersion objective. […] The images were analyzed using Icy (2.4.0.0) and Fiji (Image J). In short, to track fluorescence signal in a specific organelle, a ROI (region of interest) was determined by masking the signal in the ECFP (Enhanced Cyan Fluorescent Protein) channel with the plug-in HK-means with the following parameters: intensity class equals 100, minimum object size (pixels or px) equals 500, maximum object size (px) equals 1500-3000. […]

`Cc1cc(/C=C2\SC(=S)NC2=O)c(C)cc1O` [HBR-2,5DM, (Z)-5-(4-hydroxy-2,5-dimethylbenzylidene)-2-thioxo-1,3-thiazolidin-4-one] was tested, and the “FIRE signal at the Golgi apparatus” value [1] was “simultaneous appearance of green fluorescence”, the “translocation of mCherry-^FIREtag to the Golgi apparatus” value [1] was “rapid translocation of mCherry-^FIREtag to the organelle” and the “FIRE signal at the plasma membrane” value [2] was “simultaneous appearance of green fluorescence”. The “translocation of mCherry-^FIREtag to the plasma membrane” value [2] was “rapid translocation of mCherry-^FIREtag to the organelle”, the “kinetics of ternary assembly formation with caged^FIREtag, compared to ^FIREtag” value [3] was “slower kinetics” and the “recruitment of mCherry-caged^FIREtag to the Golgi” value ([3]; 9 min) was “efficient recruitment of mCherry-caged^FIREtag to the Golgi”.
